Results on 18 molecules are retold here after patent publication US12344603B2 (Genentech, Inc., priority 2020, dated 2025).

Structures are written as SMILES. pIC50: −log10 of the molar value. Structures can show the parent of a compound that is named as a salt.

The target in this experiment is IRE1α (Homo sapiens (Human), UniProt O75460, D688N). Description: IRE1α TR-FRET competition binding assay (IRE1α HTRF). Conditions: TR-FRET competition binding to kinase domain of IRE1α. The method in brief: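 Kinase domain (0.25 nM) pre-bound to 2 nM Eu anti-His antibody for 1 h at 4° C in HEPES pH 7.5/MgCl2/Brij 35/DTT/gamma globulin buffer, then mixed with compounds and 2 nM Alexa 647 ATP-competitive probe. 1 h at room temperature; probe displacement read as TR-FRET (Ex 347 nm, Em 665/615 nm).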
Sequence of IRE1α (O75460 547-977 D688N): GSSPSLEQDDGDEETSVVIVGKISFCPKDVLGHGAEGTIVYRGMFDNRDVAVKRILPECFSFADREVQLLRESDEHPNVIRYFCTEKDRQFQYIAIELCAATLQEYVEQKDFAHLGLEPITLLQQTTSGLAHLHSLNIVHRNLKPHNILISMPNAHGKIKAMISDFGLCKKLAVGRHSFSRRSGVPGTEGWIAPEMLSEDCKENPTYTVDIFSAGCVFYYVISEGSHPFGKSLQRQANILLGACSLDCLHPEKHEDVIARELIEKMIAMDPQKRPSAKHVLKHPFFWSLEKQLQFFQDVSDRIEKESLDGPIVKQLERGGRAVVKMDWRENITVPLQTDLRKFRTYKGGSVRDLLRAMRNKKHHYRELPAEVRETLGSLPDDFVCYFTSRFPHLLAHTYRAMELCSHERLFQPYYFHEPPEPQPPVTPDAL
A general note: Time-resolved FRET reads energy transfer from a long-lived donor to a nearby acceptor.
In general, pIC50 refers to −log10 of the IC50, conventionally taken in molar units. Higher therefore signals a low IC50. With `CCCS(=O)(=O)Nc1ccc(-c2nc3cnc(N[C@@H]4CNC[C@@H](F)C4)nc3n(C(C)C)c2=O)cc1F` [Compound 82, N-[2-Fluoro-4-[2-[[(3S,5S)-5-fluoro-3-piperidyl]amino]-8-isopropyl-7-oxo-pteridin-6-yl]phenyl]propane-1-sulfonamide], the pIC50 is 9.10.
For the molecule `CCC(F)(F)CS(=O)(=O)Nc1ccc(-c2nc3cnc(N[C@@H]4CNC[C@@H](F)C4)nc3n(C(C)C)c2=O)cc1F` [Compound 83, 2,2-Difluoro-N-[2-fluoro-4-[2-[[(3S,5S)-5-fluoro-3-piperidyl]amino]-8-isopropyl-7-oxo-pteridin-6-yl]phenyl]butane-1-sulfonamide], the negative-log IC50 (pIC50) was 9.40.
In turn, `CC(C)n1c(=O)c(-c2ccc(NS(=O)(=O)CCC(C)(F)F)c(F)c2)nc2cnc(N[C@@H]3CNC[C@@H](F)C3)nc21` [Compound 84, 3,3-Difluoro-N-[2-fluoro-4-[2-[[(3S,5S)-5-fluoro-3-piperidyl]amino]-8-isopropyl-7-oxo-pteridin-6-yl]phenyl]butane-1-sulfonamide] had a pIC50 of 9.40.
In turn, `CC(C)n1c(=O)c(-c2cc(NS(=O)(=O)CCC(F)(F)F)nn2C)cc2cnc(N[C@@H]3CNC[C@@H](F)C3)nc21` [Compound 85] gave a pIC50 of 7.80. This pIC50 is 1.60 log units lower than that of the molecule before.
With `CC(C)n1c(=O)c(-c2cc(F)c(NS(=O)(=O)Cc3ccccc3F)c(F)c2F)cc2cnc(N[C@@H]3CNC[C@@H](F)C3)nc21` [Compound 86, 1-(2-Fluorophenyl)-N-(2,3,6-trifluoro-4-(2-(((3S,5S)-5-fluoropiperidin-3-yl)amino)-8-isopropyl-7-oxo-7,8-dihydropyrido[2,3-d]pyrimidin-6-yl)phenyl)methanesulfonamide] the figure was 9.80.
`CC(C)n1c(=O)c(-c2cc(F)c(NS(=O)(=O)Cc3ccccc3F)c(F)c2F)cc2cnc(N[C@H]3CNC[C@@H](O)C3)nc21` [Compound 88, 1-(2-Fluorophenyl)-N-(2,3,6-trifluoro-4-(2-(((3R,5S)-5-hydroxypiperidin-3-yl)amino)-8-isopropyl-7-oxo-7,8-dihydropyrido[2,3-d]pyrimidin-6-yl)phenyl)methanesulfonamide] showed a pIC50 of 8.07.
Consider `CC(C)n1c(=O)c(-c2cc(F)c(NS(=O)(=O)Cc3ccccc3F)c(F)c2F)cc2cnc(N[C@@H]3CNC[C@H](O)C3)nc21` [Compound 89, 1-(2-fluorophenyl)-N-(2,3,6-trifluoro-4-(2-(((3S,5R)-5-hydroxypiperidin-3-yl)amino)-8-isopropyl-7-oxo-7,8-dihydropyrido[2,3-d]pyrimidin-6-yl)phenyl)methanesulfonamide], for which the pIC50 is 9.47.
As to `CC(C)n1c(=O)c(-c2ccc(NS(=O)(=O)Cc3ccccc3F)c(F)c2)cc2cnc(N[C@@H]3CNC[C@@H](F)C3)nc21` [Compound 90, N-(2-Fluoro-4-(2-(((3S,5S)-5-fluoropiperidin-3-yl)amino)-8-isopropyl-7-oxo-7,8-dihydropyrido[2,3-d]pyrimidin-6-yl)phenyl)-1-(2-fluorophenyl)methanesulfonamide], the pIC50 is 9.68.
With `CC(C)n1c(=O)c(-c2ccc(NS(=O)(=O)CCC(F)(F)F)c(F)c2)cc2cnc(N[C@H]3CC[C@H](N(C)C)CC3)nc21` [Compound 91, N-(4-(2-(((1r,4r)-4-(Dimethylamino)cyclohexyl)amino)-8-isopropyl-7-oxo-7,8-dihydropyrido[2,3-d]pyrimidin-6-yl)-2-fluorophenyl)-3,3,3-trifluoropropane-1-sulfonamide] the figure was 9.89; with `CC(C)n1c(=O)c(-c2ccc(NS(=O)(=O)CCC(F)(F)F)c(F)c2)cc2cnc(N[C@@H]3CNC[C@@H](F)C3)nc21` [Compound 92, 3,3,3-Trifluoro-N-(2-fluoro-4-(2-(((3S,5S)-5-fluoropiperidin-3-yl)amino)-8-isopropyl-7-oxo-7,8-dihydropyrido[2,3-d]pyrimidin-6-yl)phenyl)propane-1-sulfonamide], 9.52.
Molecule `CC(C)n1c(=O)c(-c2ccc(NS(=O)(=O)Cc3ccccc3F)nc2)cc2cnc(N[C@@H]3CNC[C@@H](F)C3)nc21` [Compound 93, 1-(2-Fluorophenyl)-N-(5-(2-(((3S,5S)-5-fluoropiperidin-3-yl)amino)-8-isopropyl-7-oxo-7,8-dihydropyrido[2,3-d]pyrimidin-6-yl)pyridin-2-yl)methanesulfonamide] had a pIC50 of 9.62.
In turn, `CC(C)n1c(=O)c(-c2ccc(NS(=O)(=O)Cc3ccccc3F)cn2)cc2cnc(N[C@H]3CC[C@H](N(C)C)CC3)nc21` [Compound 94, N-(6-(2-(((1r,4r)-4-(Dimethylamino)cyclohexyl)amino)-8-isopropyl-7-oxo-7,8-dihydropyrido[2,3-d]pyrimidin-6-yl)pyridin-3-yl)-1-(2-fluorophenyl)methanesulfonamide] showed a pIC50 of 9.57.
The molecule `CC(C)n1c(=O)c(-c2ccc(NS(=O)(=O)Cc3ccccc3F)cn2)cc2cnc(N[C@@H]3CNC[C@@H](F)C3)nc21` [Compound 95, 1-(2-Fluorophenyl)-N-(6-(2-(((3S,5S)-5-fluoropiperidin-3-yl)amino)-8-isopropyl-7-oxo-7,8-dihydropyrido[2,3-d]pyrimidin-6-yl)pyridin-3-yl)methanesulfonamide] showed a pIC50 of 9.34.
`CC(C)n1c(=O)c(-c2cc(F)c(NC(=O)[C@@H]3C[C@@H]3F)c(F)c2F)cc2cnc(N[C@H]3CC[C@H](N(C)C)CC3)nc21` [Compound 96, (1S,2S)—N-(4-(2-(((r,4r)-4-(dimethylamino)cyclohexyl)amino)-8-isopropyl-7-oxo-7,8-dihydropyrido[2,3-d]pyrimidin-6-yl)-2,3,6-trifluorophenyl)-2-fluorocyclopropane-1-carboxamide] had a pIC50 of 8.80.
Under `COc1ccc(Cl)cc1CS(=O)(=O)Nc1c(F)cc(-c2cc3cnc(N[C@@H]4CNC[C@@H](F)C4)nc3n(C(C)C)c2=O)c(F)c1F` [Compound 97, 1-(5-Chloro-2-methoxyphenyl)-N-(2,3,6-trifluoro-4-(2-(((3S,5S)-5-fluoropiperidin-3-yl)amino)-8-isopropyl-7-oxo-7,8-dihydropyrido[2,3-d]pyrimidin-6-yl)phenyl)methanesulfonamide hydrochloride] stands 9.57; under `CC(C)n1c(=O)c(-c2cc(F)c(NCC(O)C(F)(F)F)c(F)c2F)cc2cnc(N[C@H]3CC[C@H](N(C)C)CC3)nc21` (stereo partly drawn) [Compound 99, 2-(((1r,4r)-4-(Dimethylamino)cyclohexyl)amino)-8-isopropyl-6-(2,3,5-trifluoro-4-((3,3,3-trifluoro-2-hydroxypropyl)amino)phenyl)pyrido[2,3-d]pyrimidin-7(8H)-one], 7.34.
The molecule `CC(C)n1c(=O)c(-c2cc(F)c(NCC(O)C(F)(F)F)c(F)c2F)cc2cnc(N[C@H]3CC[C@H](N(C)C)CC3)nc21` (stereo partly drawn) [Compound 99A, 2-(((1r,4r)-4-(Dimethylamino)cyclohexyl)amino)-8-isopropyl-6-(2,3,5-trifluoro-4-((3,3,3-trifluoro-2-hydroxypropyl)amino)phenyl)pyrido[2,3-d]pyrimidin-7(8H)-one] had a negative-log IC50 (pIC50) of 7.17.
With `CC(C)n1c(=O)c(-c2ccc(NS(=O)(=O)CCC(F)(F)F)c(F)c2)cc2cnc(N[C@H]3CCC[C@H](N)C3)nc21` [Compound 103, N-(4-(2-(((1S,3S)-3-Aminocyclohexyl)amino)-8-isopropyl-7-oxo-7,8-dihydropyrido[2,3-d]pyrimidin-6-yl)-2-fluorophenyl)-3,3,3-trifluoropropane-1-sulfonamide] the figure was 7.59.
